Source: patent US20160338977A1, “METHODS AND KITS FOR TREATING DEPRESSION” (Janssen Pharmaceutica NV, priority 2015, published 2016)

Experiments:
[1] = test system: subjects with Treatment Resistant Depression (TRD); experiment: Treatment emergent adverse events (TEAE) in the subjects of Example 1
Source text: The treatment emergent adverse event (TEAE) side effects for the subjects of Example were obtained. See, Table 7.

[2] = test system: NMDA receptor; details: compared with the R-enantiomer (arketamine); cited from earlier work
[3] = test system: subjects with Treatment Resistant Depression (TRD); experiment: MADRS total score, double-blind placebo-controlled intranasal induction study; format: in vivo, human; details: for Mean Differences (SE) from placebo, MADRS total score: Day 8, data from both Periods 1 and 2; for Estimated Differences from placebo, MADRS total score: best fit sigmoidal Emax model; for Least Square Mean Difference from Placebo, MADRS total score: change from baseline to Day 8, ANCOVA LOCF
Source text: The subjects discussed in Examples 1 to 5 included adult men and women, 18 (or older if the minimum legal age of consent in the country in which the study is taking place is >18) to 64 years of age (inclusive), who meet diagnostic criteria for recurrent MDD or single-episode MDD, based upon clinical assessment.
This example was a 2-panel, doubly-randomized, double-blind, placebo-controlled, multicenter study. In both panels, each subject participated in a screening phase of up to 4 weeks and/or a double-blind treatment phase which includes two 1-week periods (Period 1 and Period 2).
Sixty-seven (67) subjects with Treatment Resistant Depression (TRD) were randomly assigned in a 3:1:1:1 ratio to 1 of the 4 treatment groups in Table 1.
All subjects self-administered the intranasal esketamine (28, 56, or 84 mg) or placebo on non-consecutive days. Each intranasal device contains 2 sprays and contain esketamine deliver 14 mg per spray, for a total of 28 mg per individual device (i.e., 2 sprays). […] Food was restricted for 8 hours before each administration of study drug and the drinking of fluids was restricted for at least 30 minutes before the first nasal spray.
In Period 2, 28 placebo subjects who were eligible for re-randomization at the end of Period 1 were randomly assigned to as noted in Table 1 in a 1:1:1:1 ratio. Subjects eligible for re-randomization had to have a QIDS-SR16 total score >11 at the end of Period 1. Central randomization was implemented in this study. Both randomizations were balanced using randomly permuted blocks and were stratified by study center. The randomization for Period 2 was also stratified by QIDS-SR16 score at the end of Period 1 (moderate=11-16; severe >16) Subjects who were randomly assigned to esketamine in Period 1 continued to receive esketamine in Period 2, while Period 1 placebo subjects with a QIDS-SR16 total score <11 continued with placebo in Period 2.
The Period 1 ITT analysis set consisted of all randomized subjects who received at least 1 dose of study medication during Period 1 and had both the baseline and at least one post baseline value for the primary endpoint measure, MADRS total score, within Period 1. The Period 2 ITT analysis set consisted of all Period 1 placebo subjects who were eligible for re-randomization (QIDS-SR16≧11 at end of Period 1), who actually got re-randomized into Period 2 and received at least 1 dose of study medication during Period 2, and had both the baseline and at least one post baseline MADRS total score within Period 2.
The MADRS consisted of 10 items that covered all of the core depressive symptoms (apparent sadness, reported sadness, inner tension, sleep, appetite, concentration, lassitude, interest level, pessimistic thoughts, and suicidal thoughts). Each item was scored from 0 (item is not present or is normal) to 6 (severe or continuous presence of the symptom). A total score (0 to 60) was calculated by summing the scores of all 10 items. A higher score represented a more severe condition. Sustained response (onset of clinical response) was defined as at least 50% improvement from baseline in the MADRS total score with an onset by Day 2 that was maintained to study Day 15. The primary efficacy endpoint was the change in MADRS total score from baseline to Day 8 in each period, with the analysis based on data combined across both periods. The primary efficacy analysis was performed on the intent-to-treat (ITT) analysis sets that were defined for each period, which included all randomized subjects who received at least 1 dose of study medication during that period and have both the baseline and at least one post baseline MADRS total score within that period. Significance was based on a one-sided alpha level of 0.05.
A separate ANCOVA model was performed on last observation carried forward (LOCF) data for each period. Changes from baseline in Period 1 were modeled with treatment as a factor and Period 1 baseline value as a covariate. […]

[4] = test system: subjects with Treatment Resistant Depression (TRD); experiment: Clinician Administered Dissociative States Scale (CADSS); format: in vivo, human; details: post dose; intranasal
Protocol: The Clinician Administered Dissociative States Scale (CADSS) was measured prior to the start of each dose, at 40 minutes and at 2 hours post dose. The CADSS is used to assess treatment emergent dissociative symptoms and perceptual changes and the total score ranges from 0 to 92 with a higher score representing a more severe condition. […] See, FIG. 4.

CN[C@]1(c2ccccc2Cl)CCCCC1=O.Cl [Esketamine, (S)-2-(2-chlorophenyl)-2-(methylamino)cyclohexanone hydrochloride]
Patients Experiencing on TEAE ([1]; Period 1, 28 mg intranasal): 73 | Patients Experiencing on TEAE ([1]; Period 1, 56 mg intranasal): 82 | Patients Experiencing on TEAE ([1]; Period 1, 84 mg intranasal): 83 | Patients Experiencing on TEAE ([1]; Period 2, 28 mg intranasal): 38 | Patients Experiencing on TEAE ([1]; Period 2, 56 mg intranasal): 78 | Patients Experiencing on TEAE ([1]; Period 2, 84 mg intranasal): 100 | subjects who experienced at least one TEAE ([1]; overall, esketamine in either Period 1 or Period 2): about 79% | potency or affinity for the NMDA receptor [2]: higher potency or affinity | statistical comparison with placebo, dose response model, MADRS total score ([3]; 14 mg (model estimate, dose not studied), 90% CI included 0): not statistically different from placebo | Mean Differences (SE) from placebo, MADRS total score ([3]; 28 mg): −4.2 (2.09) | Estimated Differences from placebo, MADRS total score ([3]; 28 mg): −4.22 | statistical comparison with placebo, dose response model, MADRS total score ([3]; 28 mg, sigmoidal Emax model, 90% CI): statistically superior to placebo | Mean Differences (SE) from placebo, MADRS total score ([3]; 56 mg): −6.3 (2.07) | Estimated Differences from placebo, MADRS total score ([3]; 56 mg): −7.04 | statistical comparison with placebo, dose response model, MADRS total score ([3]; 56 mg, sigmoidal Emax model, 90% CI): statistically superior to placebo | Mean Differences (SE) from placebo, MADRS total score ([3]; 84 mg): −9.0 (2.13) | Estimated Differences from placebo, MADRS total score ([3]; 84 mg): −8.45 | statistical comparison with placebo, dose response model, MADRS total score ([3]; 84 mg, sigmoidal Emax model, 90% CI): statistically superior to placebo | Least Square Mean Difference from Placebo, MADRS total score ([3]; Period 1, 28 mg intranasal): −5.0 | Least Square Mean Difference from Placebo, MADRS total score ([3]; Period 1, 56 mg intranasal): −7.6 | Least Square Mean Difference from Placebo, MADRS total score ([3]; Period 1, 84 mg intranasal): −10.5 | Least Square Mean Difference from Placebo, MADRS total score ([3]; Period 2, 28 mg intranasal): −3.1 | Least Square Mean Difference from Placebo, MADRS total score ([3]; Period 2, 56 mg intranasal): −4.4 | Least Square Mean Difference from Placebo, MADRS total score ([3]; Period 2, 84 mg intranasal): −6.9 | statistical comparison with placebo, MADRS total score ([3]; all three groups (28, 56, 84 mg), Period 1 and Period 2 combined, weighted combination test, one-sided 0.05): statistically superior to placebo | Estimated Differences from placebo, MADRS total score ([3]; dose cell blank (14 mg per text, dose not studied)): −1.98 | time of peak of dissociative and perceptual change symptoms (CADSS) [4]: ≤ 40 min | time to resolution of dissociative and perceptual change symptoms (CADSS) [4]: ≤ 2 h
